Columns and labels:
Assay type in all cases: cell-based
Citrobacter diversus = assay: MIC against Gram-negative bacteria: Citrobacter diversus
How it was run: (§1)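 First, colonies from LB agar were grown in LB at 37° C, 185 rpm, to McFarland turbidity 0.5, then centrifuged and resuspended in fresh LB. Next, wells received 5×10^5 CFU/mL bacteria plus two-fold serially diluted EGF domain protein (triplicate). Finally, plates were shaken at 37° C and the no-growth concentration taken as MIC.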

E. coli DH5α = assay: Antibacterial activity: MIC and growth curve against E. coli DH5α in 96-well plate; conditions: minimal inhibitory concentration against E. coli DH5α; 96-well plate, 5×10^5 CFU/mL, 37° C., judged after 8 h
How it was run: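 Log-phase bacteria (OD600 ~0.5) resuspended in LB at 5×10^5 CFU/mL, exposed to recombinant protein at 50, 25, 12.5 μg/mL final in triplicate, 37 °C shaking at 175 rpm. OD600 read every 30 min; MIC is lowest concentration showing no growth.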

Serratia marcescens = assay: MIC against Gram-negative bacteria: Serratia marcescens
How it was run: as §1

E. coli BL21 = assay: MIC against Gram-negative bacteria: E. coli BL21; conditions: for MIC / MIC (μg/mL) E. coli BL21: E. coli BL21
How it was run: as §1

Klebsiella pneumonia = assay: MIC against Gram-negative bacteria: Klebsiella pneumonia
How it was run: as §1

Proteus mirabilis = assay: MIC against Gram-negative bacteria: Proteus mirabilis
How it was run: as §1

Pseudomonas aeruginosa = assay: MIC against Gram-negative bacteria: Pseudomonas aeruginosa
How it was run: as §1

Enterobacter cloacae = assay: MIC against Gram-negative bacteria: Enterobacter cloacae
How it was run: as §1

Moraxella catarrhalis = assay: MIC against Gram-negative bacteria: Moraxella catarrhalis
How it was run: as §1

Aeromonas hydrophila = assay: MIC against Gram-negative bacteria: Aeromonas hydrophila
How it was run: as §1

Proteus vulgaris = assay: MIC against Gram-negative bacteria: Proteus vulgaris
How it was run: as §1

[1] = 96-well plate, 5×10^5 CFU/mL, 37° C., 10 h
[2] = C. diversus, 10 h cultivation at 37° C.
[3] = S. marcescens, 10 h cultivation at 37° C.
[4] = K. pneumonia, 10 h cultivation at 37° C.
[5] = P. mirabilis, 10 h cultivation at 37° C.
[6] = P. aeruginosa, 10 h cultivation at 37° C.
[7] = E. cloacae, 10 h cultivation at 37° C.
[8] = M. catarrhalis, 10 h cultivation at 37° C.
[9] = A. hydrophila, 10 h cultivation at 37° C.
[10] = P. vulgaris, 10 h cultivation at 37° C.

PRT559 (CHCSAEGSLHAACDPRSGQCSCRPRVTGLRCDTCVPGAYNFPYCEA; listed as Homo sapiens)
MIC against C. diversus (Citrobacter diversus; [1]): 25 µg/mL | MIC (E. coli DH5α): 25 µg/mL | MIC against S. marcescens (Serratia marcescens; [1]): 25 µg/mL | MIC against E. coli BL21 (E. coli BL21; [1]): 50 µg/mL | MIC against K. pneumonia (Klebsiella pneumonia; [1]): 12.5 µg/mL | MIC against P. mirabilis (Proteus mirabilis; [1]): 25 µg/mL | MIC against P. aeruginosa (Pseudomonas aeruginosa; [1]): 25 µg/mL | MIC against E. cloacae (Enterobacter cloacae; [1]): 25 µg/mL | MIC against M. catarrhalis (Moraxella catarrhalis; [1]): 12.5 µg/mL | MIC against A. hydrophila (Aeromonas hydrophila; [1]): 50 µg/mL | MIC against P. vulgaris (Proteus vulgaris; [1]): 50 µg/mL

PRT962 (NVDDCSPDPCHHGRCVDGIASFSCACAPGYTGTRCE; listed as Homo sapiens)
MIC (Citrobacter diversus; [2]): 12.5 µg/mL | MIC (E. coli DH5α): 25 µg/mL | MIC (Serratia marcescens; [3]): 25 µg/mL | MIC (E. coli BL21; 10 h cultivation at 37° C.): 50 µg/mL | MIC (Klebsiella pneumonia; [4]): 12.5 µg/mL | MIC (Proteus mirabilis; [5]): 50 µg/mL | MIC (Pseudomonas aeruginosa; [6]): 25 µg/mL | MIC (Enterobacter cloacae; [7]): 25 µg/mL | MIC (Moraxella catarrhalis; [8]): 25 µg/mL | MIC (Aeromonas hydrophila; [9]): 50 µg/mL | MIC (Proteus vulgaris; [10]): 12.5 µg/mL

PRT94 (DVNECNAHPCFPRVRCINTSPGFRCEACPPGYSGPTHQGVGLAFAKANKQVCT; listed as Homo sapiens)
MIC (μg/mL) C. diversus (Citrobacter diversus; Citrobacter diversus, 96-well plate, 5×10^5 CFU/mL, 37° C., 10 h): 50 µg/mL | MIC (E. coli DH5α): 12.5 µg/mL | MIC (μg/mL) S. marcescens (Serratia marcescens; Serratia marcescens, 96-well plate, 5×10^5 CFU/mL, 37° C., 10 h): 50 µg/mL | MIC (μg/mL) E. coli BL21 (E. coli BL21; [1]): 12.5 µg/mL | MIC (μg/mL) K. pneumonia (Klebsiella pneumonia; Klebsiella pneumonia, 96-well plate, 5×10^5 CFU/mL, 37° C., 10 h): 12.5 µg/mL | MIC (μg/mL) P. mirabilis (Proteus mirabilis; Proteus mirabilis, 96-well plate, 5×10^5 CFU/mL, 37° C., 10 h): 12.5 µg/mL | MIC (μg/mL) P. aeruginosa (Pseudomonas aeruginosa; Pseudomonas aeruginosa, 96-well plate, 5×10^5 CFU/mL, 37° C., 10 h): 12.5 µg/mL | MIC (μg/mL) E. cloacae (Enterobacter cloacae; Enterobacter cloacae, 96-well plate, 5×10^5 CFU/mL, 37° C., 10 h): 50 µg/mL | MIC (μg/mL) M. catarrhalis (Moraxella catarrhalis; Moraxella catarrhalis, 96-well plate, 5×10^5 CFU/mL, 37° C., 10 h): 25 µg/mL | MIC (μg/mL) A. hydrophila (Aeromonas hydrophila; Aeromonas hydrophila, 96-well plate, 5×10^5 CFU/mL, 37° C., 10 h): 12.5 µg/mL | MIC (μg/mL) P. vulgaris (Proteus vulgaris; Proteus vulgaris, 96-well plate, 5×10^5 CFU/mL, 37° C., 10 h): 25 µg/mL

PRT991 (RGLLCGSFPEPCANGGTCLSLSLGQGTCQCAPGFLGETCQ; listed as Homo sapiens)
MIC (Citrobacter diversus; [2]): 50 µg/mL | MIC (E. coli DH5α): 50 µg/mL | MIC (Serratia marcescens; [3]): 25 µg/mL | MIC (E. coli BL21; 10 h cultivation at 37° C.): 25 µg/mL | MIC (Klebsiella pneumonia; [4]): 25 µg/mL | MIC (Proteus mirabilis; [5]): 25 µg/mL | MIC (Pseudomonas aeruginosa; [6]): 12.5 µg/mL | MIC (Enterobacter cloacae; [7]): 50 µg/mL | MIC (Moraxella catarrhalis; [8]): 12.5 µg/mL | MIC (Aeromonas hydrophila; [9]): 12.5 µg/mL | MIC (Proteus vulgaris; [10]): 12.5 µg/mL

PRT558 (CTCDPRGALDQLCGAGGLCRCRPGYTGTACQECSPGFHGFPSCVP; listed as Homo sapiens)
MIC against C. diversus (Citrobacter diversus; [1]): 12.5 µg/mL | MIC (E. coli DH5α): 12.5 µg/mL | MIC against S. marcescens (Serratia marcescens; [1]): 12.5 µg/mL | MIC against E. coli BL21 (E. coli BL21; [1]): 25 µg/mL | MIC against K. pneumonia (Klebsiella pneumonia; [1]): 25 µg/mL | MIC against P. mirabilis (Proteus mirabilis; [1]): 50 µg/mL | MIC against P. aeruginosa (Pseudomonas aeruginosa; [1]): 12.5 µg/mL | MIC against E. cloacae (Enterobacter cloacae; [1]): 50 µg/mL | MIC against M. catarrhalis (Moraxella catarrhalis; [1]): 25 µg/mL | MIC against A. hydrophila (Aeromonas hydrophila; [1]): 25 µg/mL | MIC against P. vulgaris (Proteus vulgaris; [1]): 25 µg/mL

PRT225 (DIDECSYSSYLCQYRCINEPGRFSCHCPQGYQLLATRLCQ; listed as Homo sapiens)
MIC (μg/mL) C. diversus (Citrobacter diversus; C. diversus, 10 h cultivation at 37° C., 5×10^5 CFU/mL): 25 µg/mL | MIC (E. coli DH5α): 12.5 µg/mL | MIC (μg/mL) S. marcescens (Serratia marcescens; S. marcescens, 10 h cultivation at 37° C., 5×10^5 CFU/mL): 25 µg/mL | MIC (μg/mL) E. coli BL21 (E. coli BL21; 10 h cultivation at 37° C., 5×10^5 CFU/mL): 50 µg/mL | MIC (μg/mL) K. pneumonia (Klebsiella pneumonia; K. pneumonia, 10 h cultivation at 37° C., 5×10^5 CFU/mL): 50 µg/mL | MIC (μg/mL) P. mirabilis (Proteus mirabilis; P. mirabilis, 10 h cultivation at 37° C., 5×10^5 CFU/mL): 25 µg/mL | MIC (μg/mL) P. aeruginosa (Pseudomonas aeruginosa; P. aeruginosa, 10 h cultivation at 37° C., 5×10^5 CFU/mL): 12.5 µg/mL | MIC (μg/mL) E. cloacae (Enterobacter cloacae; E. cloacae, 10 h cultivation at 37° C., 5×10^5 CFU/mL): 25 µg/mL | MIC (μg/mL) M. catarrhalis (Moraxella catarrhalis; M. catarrhalis, 10 h cultivation at 37° C., 5×10^5 CFU/mL): 50 µg/mL | MIC (μg/mL) A. hydrophila (Aeromonas hydrophila; A. hydrophila, 10 h cultivation at 37° C., 5×10^5 CFU/mL): 12.5 µg/mL | MIC (μg/mL) P. vulgaris (Proteus vulgaris; P. vulgaris, 10 h cultivation at 37° C., 5×10^5 CFU/mL): 12.5 µg/mL

PRT668 (DINECRHPGTCPDGRCVNSPGSYTCLACEEGYRGQSGSCV; listed as Homo sapiens)
MIC C. diversus (Citrobacter diversus; [1]): 100 µg/mL | MIC (E. coli DH5α): 12.5 µg/mL | MIC S. marcescens (Serratia marcescens; [1]): 100 µg/mL | MIC E. coli BL21 (E. coli BL21; [1]): 50 µg/mL | MIC K. pneumonia (Klebsiella pneumonia; [1]): 50 µg/mL | MIC P. mirabilis (Proteus mirabilis; [1]): 25 µg/mL | MIC P. aeruginosa (Pseudomonas aeruginosa; [1]): 12.5 µg/mL | MIC E. cloacae (Enterobacter cloacae; [1]): 12.5 µg/mL | MIC M. catarrhalis (Moraxella catarrhalis; [1]): 25 µg/mL | MIC A. hydrophila (Aeromonas hydrophila; [1]): 50 µg/mL | MIC P. vulgaris (Proteus vulgaris; [1]): 50 µg/mL
